Each block holds one molecule with its values, some of them ahead of it. Active and inactive are the calls of the source. The calls are words filed in the database; no cut-off is given here.
Legend:
Mus musculus [1] = test: Antihyperglycemic effect in ob/ob B6.V-Lepob/J mouse assessed as reduction in blood glucose level at 20 mg/kg once daily after 14 days relative to control; assay type: functional
[2] = biological target: T1, Peroxisome proliferator-activated receptor alpha (Homo sapiens, UniProt Q07869)
T1 sequence (Q07869 whole entry): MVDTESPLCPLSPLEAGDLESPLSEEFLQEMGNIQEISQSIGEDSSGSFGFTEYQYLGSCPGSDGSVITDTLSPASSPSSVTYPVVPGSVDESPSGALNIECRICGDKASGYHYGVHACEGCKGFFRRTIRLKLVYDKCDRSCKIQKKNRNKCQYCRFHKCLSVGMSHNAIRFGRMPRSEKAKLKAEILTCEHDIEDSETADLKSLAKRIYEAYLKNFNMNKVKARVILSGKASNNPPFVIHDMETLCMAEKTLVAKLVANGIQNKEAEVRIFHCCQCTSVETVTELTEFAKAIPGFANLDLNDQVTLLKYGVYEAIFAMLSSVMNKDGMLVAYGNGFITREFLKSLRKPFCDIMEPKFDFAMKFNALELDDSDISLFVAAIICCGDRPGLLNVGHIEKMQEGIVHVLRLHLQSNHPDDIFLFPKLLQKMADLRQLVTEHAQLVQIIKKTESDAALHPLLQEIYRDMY

Rattus norvegicus [3] = test: Reduction of plasma glucose level in Zucker diabetic fa/fa rat at 10 mg/kg, po; assay type: functional; parameters: scale not given: the % may be the effect or the level left
Rattus norvegicus [4] = test: Increase in high density lipoprotein level in Zucker diabetic fa/fa rat at 10 mg/kg, po; assay type: functional
Rattus norvegicus [5] = test: Decrease in fasting serum triglyceride level in Zucker diabetic fa/fa rat at 10 mg/kg, po; assay type: functional; parameters: scale not given: the % may be the effect or the level left
[6] = AUC in Sprague-Dawley rat plasma at 5 mg/kg, po after 24 hrs; assay type: ADME, organism-based; parameters: time < 24 hr, dose 5 mg/kg, route oral
Mus musculus [7] = species on record: Mus musculus; test: Antihyperglycemic effect in ob/ob B6.V-Lepob/J mouse assessed as reduction in plasma glucose level after 14 days relative to control; assay type: functional, organism-based
[8] = Clearance in Sprague-Dawley rat plasma after 24 hrs; assay type: ADME, organism-based
[9] = Bioavailability in Sprague-Dawley rat plasma at 5 mg/kg, po after 24 hrs; assay type: ADME, organism-based
[10] = Half life in Sprague-Dawley rat plasma at 1 mg/kg, iv after 24 hrs; assay type: ADME, organism-based; parameters: dose 1 mg/kg, route intravenous
[11] = Volume of distribution at steady state in Sprague-Dawley rat plasma after 24 hrs; assay type: ADME, organism-based; settings: read-out: Vdss
[12] = Half life in Sprague-Dawley rat plasma at 5 mg/kg, iv after 24 hrs; assay type: ADME, organism-based; parameters: dose 5 mg/kg, route intravenous

Structure (SMILES): Cc1oc(-c2ccccc2)nc1CCNc1ccc(C[C@@H](C(=O)O)n2cccc2)cc1
Activity (Mus musculus [1]): inactive

EC50 [2]: 16 µM
Structure (SMILES): Cc1oc(-c2ccccc2)nc1CC#Cc1ccc(CC(C(=O)O)c2cccnc2)cc1 (racemic)

EC50 [2]: > 30 µM
Structure (SMILES): Cc1oc(-c2ccccc2)nc1CNCc1ccc(C[C@@H](C(=O)O)n2cccc2)cc1

EC50 [2]: 2.8 µM
Structure (SMILES): Cc1oc(-c2ccccc2)nc1CC#Cc1ccc(CC(C(=O)O)c2cccc(-c3ccccc3)c2)cc1 (racemic)

EC50 [2]: > 100 µM
Structure (SMILES): CN(CC#Cc1ccc(C[C@@H](C(=O)O)n2cccc2)cc1)c1ccccc1

EC50 [2]: 29 µM
Structure (SMILES): CN(C/C=C/c1ccc(C[C@@H](C(=O)O)n2cccc2)cc1)c1ccccn1

Structure (SMILES): Cc1oc(-c2ccccc2)nc1CCOc1ccc(C[C@@H](C(=O)O)n2cccc2)cc1
Activity (Rattus norvegicus [3]): 40%
Activity (Rattus norvegicus [4]): 31%
Activity (Rattus norvegicus [5]): 24%

EC50 [2]: > 30 µM
Structure (SMILES): CN(C/C=C/c1ccc(C[C@@H](C(=O)O)n2cccc2)cc1)c1ccccc1

EC50 [2]: 4 µM
Structure (SMILES): Cc1oc(-c2ccccc2)nc1CC#Cc1ccc(CC(C(=O)O)c2ccc(-c3ccccc3)cc2)cc1 (racemic)

Structure (SMILES): Cc1oc(-c2ccccc2)nc1C/C=C/c1ccc(C[C@@H](C(=O)O)n2cccc2)cc1
AUC at 24 h [6]: 55400 ng·h/mL
Activity (Mus musculus [7]): Active
clearance [8]: 0.9 mL/min/kg
Activity (Mus musculus [1]): 71%
bioavailability [9]: 62%
half-life [10]: 5.6 h
Vd [11]: 0.408 L/kg

Structure (SMILES): Cc1oc(-c2ccccc2)nc1CCCc1ccc(C[C@@H](C(=O)O)n2cccc2)cc1
AUC at 24 h [6]: 8650 ng·h/mL
Activity (Mus musculus [7]): Active
clearance [8]: 5.3 mL/min/kg
Activity (Mus musculus [1]): 70%
bioavailability [9]: 50%
Vd [11]: 1.06 L/kg
half-life [12]: 8.4 h

EC50 [2]: 12 µM
Structure (SMILES): Cc1oc(-c2ccccc2)nc1CN(C)Cc1ccc(C[C@@H](C(=O)O)n2cccc2)cc1

EC50 [2]: > 30 µM
Structure (SMILES): CC(=O)N(Cc1ccc(C[C@@H](C(=O)O)n2cccc2)cc1)Cc1nc(-c2ccccc2)oc1C

EC50 [2]: > 100 µM
Structure (SMILES): CN(CC#Cc1ccc(CC(C(=O)O)n2cccc2)cc1)c1ccccn1 (racemic)
